Where two headings read alike, the source gives them in different places.
Key:
[1] = Lucigenin assay of Cl− transport in vesicles; assay type: biochemical; details: 100 µM compound, interior NaNO3 200 mM, exterior NaCl (2 M), 25°C, first-order curve fit
Experimental: To confirm that chloride could pass through the bilayers, lucigenin assays[5a] were performed for 2, Cu(II)[1]Cl2 and Cu(II)[2]Cl2 (Fig. 5 and ESI, Fig. S10 ^†). The same lipids were used as for the HPTS assays and lucigenin was encapsulated with NaNO3 in the vesicles.
Figure S9: Ionophoric activity determined through an HPTS assay in the presence of NaCl (100 mM) for: 2 (10 µM) in the absence (pink inverted triangles) and presence of FCCP (20 µM, blue triangles) and Cu(II)[2]Cl2 (6 µM) in the absence (red circles) and presence of FCCP (20 µM, black squares). Base pulse at 1 min, TX-100 added at 7 min.
5.4 Preparation of large unilamellar vesicles for lucigenin assays […]
Lucigenin assays procedure and fluorescence normalisation were developed by a modification of published methods.10 An aliquot of the vesicle stock solution (100 μL) w as diluted to 1.9 mL with 200 mM NaNO 3 in water (pH = 7.4) (final lipid co ncentration in cuvette 0.762 mM). […] The cuvette was then placed into a Varian Cary Eclipse fluorescence spectrophotometer in the moderate stirring mode. The fluorescence emission at 505 nm was observed, resulting from excitation at 455 nm, over a period of seven minutes (420 seconds) at 25°C. […] The change in fluorescence was followed for six minutes before final lysis of the vesicles at seven minutes (420 s) by adding an aliquot of a 10 % v/v solution of Triton X-100 […]

[2] = system: B. megaterium strain DSM319; test: Antimicrobial assay: minimum inhibitory concentration (MIC); assay type: cell-based; details: B. megaterium strain DSM319, LB broth, about 3 × 10^6 CFU/mL, 30 °C overnight, OD 600 nm, compound in DMSO, three biological repeats with three technical repeats
Experimental: The antibiotic activities of 1, 2, Cu(II)[1]Cl2 and Cu(II)[2]Cl2 were measured against B. megaterium strain DSM319 (see the ESI ^†).
Metal ion chelating Aib foldamers 1 and 2 bear a novel amino-terminal copper and nickel (ATCUN) binding motif; other ATCUN motifs are reported to increase antibiotic properties by generating reactive oxygen species upon metal binding.24 Furthermore many copper-containing metallodrugs have been stu died for their anticancer25 and antibiotic properties.26 Introducing the Cu(II)(BPTA) group onto the Aib octamer unit […]
antibiotic studies of long Aib n oligomers (n ≥ 10).15
7.1 Antimicrobial assays: minimum inhibitory concentrations (MIC)
The used procedure was developed by modification of published methods.27 The antimicrobial activity of the appropriate compound was tested against B. megaterium strain DSM319. Bacteria were grown over night at 30 °C in standard lysogeny broth (LB) broth from a single colony overnight. An aliquot from this suspension was taken and diluted (1:100) in fresh LB broth until the suspension reached the mid - logarithmic phase (OD600 = 0.4). […]
The plates were shaken for about 30 seconds and the optical density (OD) was measured at 600 nm.
Afterwards the plates were incubated at 30 °C under aerobic conditions with shaking overnight. The absorbance was then measured at 600 nm using a ClarioStar plate reader. […]

[3] = system: human erythrocytes; test: Haemolysis assay; assay type: cell-based; details: fresh blood diluted with PBS (1:2), compound in DMSO, 37 °C for 30 min, triplicates, read-out: EC50 for haemolysis (haemoglobin release)
[4] = cited from earlier work
Source text: Application of Hille's equation[47] to estimate the inner channel diameters for both Cu(II)[2]Cl2 and Cu(II)[2]Cl·HCO3 provided approximate pore diameters of 1.5 nm, 2.1 nm and 2.3 nm for the different conductance levels (see the ESI ^†). […] Planar bilayer conductance (PBC) studies Alamethicin provides a useful comparison to the data reported in the manuscript and in the ESI.

[5] = system: human erythrocytes; details: in phosphate buffer after 1 h incubation; read-out: reported EC50 for haemolysis; cited from earlier work
Source text: Although alamethicin is a very active channel former, its use in the clinic is hampered by its high haemolytic activity.[52]

Substance: alamethicin
- kobs of Cl− transport (lucigenin assay) [1]: 0.0073 s⁻¹
- MIC, minimum inhibitory concentration [2]: 6 ± 2 µM
- EC50 [3]: 1400 nM
- proposed pore diameter, hexameric pores [4]: 1.1 nm
- proposed pore diameter, octameric pores [4]: 1.8 nm
- EC50 [5]: 1450 nM
